For nine compounds, melting point, IC50 and CDK inhibition results are on record in patent US20040210063A1 (priority 2001, published 2004).

Series [1] addresses human GSK-3β (Homo sapiens, UniProt P49841). The series can be described thus: Assay (I): inhibition of GSK-3, 33P-ATP phosphorylation of a glycogen synthase derived substrate. The format is biochemical. To be noted: 35 μM substrate, 0.1 mM 33P-labeled ATP, 60 min at room temperature. On the procedure:
Inhibition of GSK-3 by a test compound was evaluated using human GSK-3β and a glycogen synthase derived substrate with the following amino acid sequence:
In brief, GSK-3β was incubated with 35 μM substrate and varying concentrations of test compound in a buffer containing 0.1 mM ^33P-labeled ATP, 10 mM magnesium acetate, 8 mM MOPS pH 7.0, 0.2 mM EDTA, 0.1% dithiothreitol and 0.03% Triton-X100 for 60 min at room temperature. The reaction was performed using 96-well plates. The reaction was terminated by adding 13 μl 2% phosphoric acid to each well, and 10 μl was spotted onto P30 paper which was washed 4 times in 0.5% phosphoric acid to remove non-incorporated ^33P-labeled ATP. After drying the radioactivity was counted in a Wallac. Dose-response profiles were generated, and the IC50 value for inhibition of GSK-3 by the test compound was calculated using a four-parameter logistic function.

Series [2] has as its system cyclin-dependent kinases (CDKs). The following applies: at the tested concentration; Table I of WO 99/21845; cited from earlier work.

Counter-ions that a name gives are not always drawn.

Sequence of human GSK-3β (P49841 whole entry): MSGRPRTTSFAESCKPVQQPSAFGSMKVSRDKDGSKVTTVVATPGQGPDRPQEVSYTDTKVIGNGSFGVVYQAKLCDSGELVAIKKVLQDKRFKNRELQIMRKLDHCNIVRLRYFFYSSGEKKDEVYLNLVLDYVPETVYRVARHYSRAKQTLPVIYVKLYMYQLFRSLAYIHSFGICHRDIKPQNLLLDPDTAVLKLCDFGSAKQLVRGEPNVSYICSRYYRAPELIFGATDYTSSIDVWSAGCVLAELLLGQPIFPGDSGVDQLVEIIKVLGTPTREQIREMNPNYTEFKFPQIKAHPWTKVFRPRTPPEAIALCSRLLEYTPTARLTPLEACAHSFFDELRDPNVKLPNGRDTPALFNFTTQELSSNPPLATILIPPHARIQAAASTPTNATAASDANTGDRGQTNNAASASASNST

A word on the melting point: it is the temperature, or range, at which the solid turns liquid. For the compound `CN1CCN(CCCNc2nc(N)c(C(=O)c3ccc(Cl)s3)s2)CC1` (as salt: hydrochloride) [Example 8, {4-Amino-2-[3-(4-methylpiperazin-1-yl)propylamino]thiazol-5-yl}-(5-chlorothiophen-2-yl)methanone], the melting point was in the range of 210 to 212 °C.

Turning to `CN1CCN(CCCNc2nc(N)c(C(=O)c3cccc(OCc4ccccc4)c3)s2)CC1` (as salt: hydrochloride) [Example 10, {4-Amino-2-[3-(4-methylpiperazin-1-yl)propylamino]thiazol-5-yl}-(3-benzyloxyphenyl)methanone], the melting point is 99 to 100 °C.

One may read the IC50 as the concentration that inhibits the measured activity by half. High values mean weaker potency, low ones greater potency. The compound `CC(C)(C)OC(=O)NCCCNc1nc(N)c(C(=O)c2ccc(Cl)s2)s1` [Example 3, 3-[4-Amino-5-(5-chlorothiophene-2-carbonyl)thiazol-2-ylamino]propylcarbamic acid tert-butyl ester] gave an IC50 in series [1] of less than 1000 nM.

In turn, `CC(C)(C)OC(=O)N1CCC(Nc2nc(N)c(C(=O)c3cccc(OCc4ccccc4)c3)s2)CC1` [Example 5, 4-[4-Amino-5-(3-benzyloxybenzoyl)thiazol-2-ylamino]piperidine-1-carboxylic acid tert-butyl ester] registered an IC50 in series [1] of less than 1000 nM.

As to `CC(C)(C)OC(=O)NCCCNc1nc(N)c(C(=O)c2cccc(OCc3ccccc3)c2)s1` [Example 6, {3-[4-Amino-5-(3-benzyloxybenzoyl)thiazol-2-ylamino]propyl}carbamic acid tert-butyl ester], in series [1], the IC50 is less than 1000 nM.

Regarding `Nc1nc(NCCCN2CCCC2=O)sc1C(=O)c1ccc(Cl)s1` [Example 7, 1-{3-[4-Amino-5-(5-chlorothiophene-2-carbonyl)thiazol-2-ylamino]propyl}pyrrolidin-2-one], the melting point fell in the range of 224 to 225 °C. This compound registered an IC50 in series [1] of less than 1000 nM.

Compound `Nc1nc(NCCCN2CCCC2=O)sc1C(=O)c1cccc(OCc2ccccc2)c1` [Example 9] showed a melting point of 184 °C. Further, in series [1], the IC50 is less than 1000 nM.

In series [1], `CN1CCN(CCCNc2nc(N)c(C(=O)c3cccc(OCc4ccccc4)c3)s2)CC1` [Example 10, {4-Amino-2-[3-(4-methylpiperazin-1-yl)propylamino]thiazol-5-yl}-(3-benzyloxyphenyl)methanone] registered an IC50 of less than 1000 nM.

With `Nc1nc(NCCN2CCCCC2)sc1C(=O)c1ccc(F)cc1` [I(6)], the CDK inhibition result in series [2] is recorded as “No CDK inhibition was observed”.
